Laboratory results: PubChem BioAssay (NCI)
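Cells were grown in 96-well plates and exposed to each compound for 48 hours at five concentrations; endpoints were interpolated linearly between bracketing concentrations, or set to the highest concentration if not reached. GI50 = concentration required for 50% inhibition of growth. TGI: total growth inhibition.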

Key:
Test in all cases: NCI anticancer screen, dose series, 48 h
SK-MEL-5 melanoma = tested on: SK-MEL-5 melanoma
U251 CNS = tested on: U251 CNS
OVCAR-3 ovarian = tested on: OVCAR-3 ovarian
HT29 colon = tested on: HT29 colon
UACC-257 melanoma = tested on: UACC-257 melanoma
HS 578T breast = tested on: HS 578T breast
SK-OV-3 ovarian = tested on: SK-OV-3 ovarian
UACC-62 melanoma = tested on: UACC-62 melanoma
HCT-15 colon = tested on: HCT-15 colon
K-562 leukemia = tested on: K-562 leukemia

| Structure (SMILES) | GI50 (SK-MEL-5 melanoma) [µM] | TGI (SK-MEL-5 melanoma) [µM] | GI50 (U251 CNS) [µM] | TGI (U251 CNS) [µM] | GI50 (OVCAR-3 ovarian) [µM] | TGI (OVCAR-3 ovarian) [µM] | GI50 (HT29 colon) [µM] | TGI (HT29 colon) [µM] | GI50 (UACC-257 melanoma) [µM] | TGI (UACC-257 melanoma) [µM] | GI50 (HS 578T breast) [µM] | TGI (HS 578T breast) [µM] | GI50 (SK-OV-3 ovarian) [µM] | TGI (SK-OV-3 ovarian) [µM] | GI50 (UACC-62 melanoma) [µM] | TGI (UACC-62 melanoma) [µM] | GI50 (HCT-15 colon) [µM] | TGI (HCT-15 colon) [µM] | GI50 (K-562 leukemia) [µM] | TGI (K-562 leukemia) [µM] |
| --- | --- | --- | --- | --- | --- | --- | --- | --- | --- | --- | --- | --- | --- | --- | --- | --- | --- | --- | --- | --- |
| CCN(CC)S(=O)(=O)c1cccc(-c2ccc3c(NC(=O)C4CC4)n[nH]c3c2)c1 | 0.986 | 3.58 | 2.1 | > 6.25 | 1.9 | > 6.25 | 2.3 | > 6.25 | 2.26 | > 6.25 | 1.83 | > 6.25 | 3.48 | > 6.25 | 2.28 | > 6.25 | 2.4 | > 6.25 | 0.381 | > 6.25 |
| Cc1c(NC(=O)Nc2c(Cl)cccc2Cl)c(=O)n(-c2ccccc2)n1C |  | > 100 |  | > 100 |  | > 100 |  | > 100 |  | > 100 |  | > 100 |  | > 100 |  | > 100 |  | > 100 |  | > 100 |
| O=C1C(Cl)=C(Nc2cc(Cl)ccc2O)C(=O)N1Cc1ccccc1 | 16.1 | 29.9 | 15.8 | 29.6 | 18.6 | 35.8 | 16.4 | 59.9 | 14.1 | 28.3 | 21.7 | 49.6 | 19.7 | 43.3 | 16.2 | 30.8 | 17 | 32.6 | 23.7 | 65.3 |
| c1cc(C2CCCCC2)ccc1-c1cnc2nonc2n1 | 1.29 | 2.62 | 1.18 | 2.44 | 0.557 | 1.97 | 0.603 | 3.27 | 1.28 | 3.9 | 1.02 | > 58.3 | 2.21 | 5.98 | 0.393 | 1.96 | 0.438 | 2.26 | 0.4 | 18.8 |
| CC(C)(O)CCc1cccc(C(=O)c2cnn(-c3ccc(F)cc3)c2N)c1 | 13.5 | > 25 | > 25 | > 25 | > 25 | > 25 | > 25 | > 25 | > 25 | > 25 | > 25 | > 25 | > 25 | > 25 | > 25 | > 25 | > 25 | > 25 | > 25 | > 25 |
| O=C1c2ccn(CCCNC(CO)(CO)CO)c2C(=O)c2c1c(O)c1ccccc1c2O |  | 0.588 | 15.2 | 36.6 | 6.71 | 21.6 | 15.4 | > 46.3 | 43.9 | > 78.1 | 1.22 |  | 30.8 | 96.6 | 24.6 | > 61.3 | 14.2 | 28.6 | 9.36 | 90.1 |
| CSc1nnc(-c2cc3c([nH]c4ccccc43)c(-c3cccc(O)c3)n2)n1-c1ccc(C)cc1 | 2.38 | 11.5 | 4.84 | 28.7 | 2.64 | 9.24 | 3.39 | > 100 | 5 | 44.7 | 3.86 | 72.1 | 3.19 | 14 | 3.28 | 21.5 | 3.55 | > 100 | 5.08 | > 100 |
| O=C(NCc1ccco1)C1CCN(S(=O)(=O)c2ccc(Cl)cc2)CC1 | 53.5 | > 100 | > 100 | > 100 | > 100 | > 100 | > 100 | > 100 | > 100 | > 100 | > 100 | > 100 | > 100 | > 100 | 80.5 | > 100 | 39.6 | > 100 | 39.2 | > 100 |
| NC(Cc1cccnn1)C(=O)O (stereo unspecified) |  | > 100 |  | > 100 |  | > 100 |  | > 100 |  | > 100 |  | > 100 |  | > 100 |  | > 100 |  | > 100 |  | > 100 |
| COc1ccc(/C=C2\COc3ccc(O)c(O)c3C2=O)cc1OC | 1.79 | 3.4 | 0.991 | 7.2 | 0.539 | 3.31 | 2.12 | 5.2 | 1.75 | 4.93 | 2.23 | 8.29 | 3.83 | > 100 | 1.19 | 2.86 | 0.488 | 5.73 | 0.467 | > 100 |
| Cc1cc2c3c([n+](C)c4ccc(F)cc4c3c1)-c1cc(F)ccc1N2C | 5.29 | 22.1 | 1.69 | > 100 | 12 | 61.8 | 33.2 | > 100 | 6.2 | 30.5 | 2.4 | 9.77 | 64.7 | > 100 |  |  | > 100 | > 100 | 4.74 | > 100 |
| COC(=O)c1c2c(c(C)[n+]([O-])c1C)C(=O)C(NCc1ccc(F)cc1)=CC2=O | 0.3 | 1 | 1.81 | 5.14 | 0.319 | 1.11 | 0.711 | > 100 | 0.845 | 2.44 | 2.47 | 8.03 | 2.92 | 9.11 | 1.25 | 2.65 | 1.23 | 3 | 2.43 | > 100 |
| CC(C)(C)C(=O)c1c(C(F)(F)F)n([O-])c2cc(Cl)c(Cl)cc2[n+]1=O | 0.277 | 1.1 | 0.492 | 0.951 | 0.125 | 0.363 | 0.192 | 0.546 | 1.28 | 2.86 | 0.16 | 0.554 | 0.815 | 2.07 | 1.46 | 2.77 | 0.257 | 0.652 | 0.582 | 1.15 |
